Key:
[1] = target: Glutathione S-transferase P (Homo sapiens, UniProt P09211); assay: Inhibition of GSTP1-1 (unknown origin) using reduced GSH and CDNB as substrate incubated for 10 mins followed by substrate addition by microplate reader analysis
[2] = target: T1, Glutathione S-transferase Mu 2 (Homo sapiens, UniProt P28161); assay: Inhibition of GSTM2-2 (unknown origin) using reduced GSH and CDNB as substrate incubated for 10 mins followed by substrate addition by microplate reader analysis
T1 sequence (P28161 whole entry): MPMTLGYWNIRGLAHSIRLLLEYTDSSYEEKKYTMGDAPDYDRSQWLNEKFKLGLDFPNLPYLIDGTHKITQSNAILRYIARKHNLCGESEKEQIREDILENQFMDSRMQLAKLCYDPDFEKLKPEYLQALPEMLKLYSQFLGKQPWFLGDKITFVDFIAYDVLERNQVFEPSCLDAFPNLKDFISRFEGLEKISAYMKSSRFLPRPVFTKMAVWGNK

HUVEC = assay: Cytotoxicity against HUVEC assessed as reduction in cell viability incubated for 72 hrs by MTT assay; type: cell-based; conditions: Homo sapiens
L02 = assay: Cytotoxicity against human L02 cells assessed as reduction in cell viability incubated for 72 hrs by MTT assay; type: cell-based; conditions: L02, 72 h
A549 = assay: Antiproliferative activity against human A549 cells assessed as inhibition of cell proliferation incubated for 72 hrs by MTT assay; type: functional, cell-based; conditions: A549, 72 h
[3] = Antiproliferative activity against […] B16 cells assessed as inhibition of cell proliferation incubated for 72 hrs by MTT assay; type: functional, cell-based; conditions: B16, 72 h
143B = assay: Antiproliferative activity against human 143B cells assessed as inhibition of cell proliferation incubated for 72 hrs by MTT assay; type: functional, cell-based
HOS = assay: Antiproliferative activity against human HOS cells assessed as inhibition of cell proliferation incubated for 72 hrs by MTT assay; type: functional, cell-based
[4] = Water solubility of the compound measured by UV-Visible spectral analysis; type: physicochemical; conditions: buffer

Sequence of Glutathione S-transferase P (P09211 whole entry): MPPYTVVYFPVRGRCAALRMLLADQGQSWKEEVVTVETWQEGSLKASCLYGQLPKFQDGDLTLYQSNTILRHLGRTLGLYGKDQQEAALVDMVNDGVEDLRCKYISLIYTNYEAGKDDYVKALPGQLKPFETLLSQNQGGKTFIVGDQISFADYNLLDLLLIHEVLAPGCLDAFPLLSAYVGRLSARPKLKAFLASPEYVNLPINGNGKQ

SMILES | IC50 [1] [nM] | IC50 [2] [nM] | IC50 (A549) [nM] | solubility [4] | IC50 (HUVEC) [nM] | IC50 (L02) [nM] | IC50 [3] [nM] | IC50 (143B) [nM] | IC50 (HOS) [nM]
COc1ccccc1NC(=O)CCC(=O)OCCCCCCSc1ccc([N+](=O)[O-])c2nonc12 | 4050 | 280 | 1870 | – | 1610 | 4490 | 1380 | 2120 | 2850
O=C(CCC(=O)N1CCCCC1)OCCCCCCSc1ccc([N+](=O)[O-])c2nonc12 | 500 | 110 | 2510 | – | 1990 | 3970 | 860 | 1900 | 1790
O=C(CCC(=O)OCCCCCCSc1ccc([N+](=O)[O-])c2nonc12)NCCN1CCOCC1 | 35000 | 100 | 2150 | Soluble | 1070 | 3010 | 1800 | 2820 | 1810
O=C(CCC(=O)N1CCOCC1)OCCCCCCSc1ccc([N+](=O)[O-])c2nonc12 | 330 | 170 | 1670 | – | 5340 | 3240 | 820 | 1530 | 1010
O=C(CCC(=O)OCCCCCCSc1ccc([N+](=O)[O-])c2nonc12)NCCN1CCCC1 | 460 | 200 | 3240 | Soluble | 6070 | 6580 | 3500 | 5580 | 3300

Second part, led by results:

IC50 [1] [nM] | IC50 [2] [nM] | IC50 (A549) [nM] | solubility [4] | SMILES | IC50 (HUVEC) [nM] | IC50 (L02) [nM] | IC50 [3] [nM] | IC50 (143B) [nM] | IC50 (HOS) [nM]
6800 | 390 | 5240 | – | Cc1ccc(NC(=O)CCC(=O)OCCCCCCSc2ccc([N+](=O)[O-])c3nonc23)cc1 | 2340 | 7320 | 1950 | 3250 | 3340
9850 | 470 | 3210 | – | O=C(CCC(=O)OCCCCCCSc1ccc([N+](=O)[O-])c2nonc12)Nc1ccc(F)c(Cl)c1 | 2320 | 4570 | 4170 | 2990 | 2800
28800 | 1100 | 5290 | – | O=C(CCC(=O)OCCCCCCSc1ccc([N+](=O)[O-])c2nonc12)Nc1cccc(Cl)c1 | 1090 | 6930 | 3110 | 2890 | 1920
5090 | 32000 | 3340 | – | O=C(CCC(=O)OCCCCCCSc1ccc([N+](=O)[O-])c2nonc12)Nc1ccc(Br)cc1 | 1610 | 4330 | 2640 | 2710 | 2160
5050 | 90 | 4020 | – | O=C(CCC(=O)OCCCCCCSc1ccc([N+](=O)[O-])c2nonc12)Nc1ccc(C(F)(F)F)cc1 | 1390 | 5010 | 1120 | 2100 | 3200

Source: ChEMBL document CHEMBL4732174, “Discovery of 6-(7-Nitro-2,1,3-benzoxadiazol-4-ylthio)hexanol Derivatives as Glutathione Transferase Inhibitors with Favorable Selectivity and Tolerated Toxicity” (J Med Chem, 2021)
